Laboratory results as given in US9957230B2, “Synergistic compositions” (Cadila Healthcare Limited, priority 2013, dated 2018).
Where “and” joins values, the source holds several entries; their conditions need not be identical. Equal values may be shown once. Where a name gives a salt, the structure may show the parent alone.

Assays:
Format in all cases: in vivo
[1] = system: high fat high cholesterol fed Syrian golden hamster; assay: Lipid lowering effects with Atorvastatin in HF-HC fructose diet Syrian golden hamsters (study V)
Description: The in-vivo efficacy was done in high fat high cholesterol fed Syrian golden hamster. It is an excellent model to investigate hepatic assembly and secretion of lipoprotein since its lipoprotein metabolism closely resembles that of humans as they have cholesteryl ester transfer protein (CETP) as like human. Feeding high fat high cholesterol diet to Syrian golden hamster causes hypercholesterolemia and hypertriglyceridemia which causes an increase in LDL levels and decrease in HDL-C/TC ratio.
In this experiment, 18 Syrian golden hamsters which were kept on high fat-high cholesterol (HF-HC) fructose diet were divided into 3 treatment groups and one group was on normal diet control which was NIN (National Institute of Nutrition, NIN diet) control, the treatment given was as per Table no. 1. […] 20. The treatment was given oral gavages once daily for 13 days.
Calculations of the % change in LDL-C levels, triglyceride and LDL-C/HDL-C ratio (Vs HF-HC fructose diet control) were performed using MS Excel.

db/db mice [2] = assay: Oral glucose tolerance test in db/db mice (studies VII and VIII); conditions: for AUC Glucose: OGTT day 7, fasting, glucose load 2 gm/kg
Description: (§1) In this experiment, 49 db/db mice of 12-16 week were divided into 7 groups and as per their day 0 serum glucose levels. […] Detail treatments and routes of administrations were mentioned in Table no. 27. The treatment was given once daily for 7 days.
(§2) The blood was collected by retro-orbital sinus puncture method under light ether anesthesia on day 0 (pretreatment) and on day 6 (one hour after dose administration) for non-fasting glucose analysis and oral glucose tolerance test (OGTT) was performed on day 7 of the treatment in fasting condition. After blood collection serum was separated and analyzed glucose analysis using Spectra max and commercial diagnostic kits. The OGTT procedure followed is as given below—
Oral Glucose Tolerance Test (OGTT): One day before OGTT all animals were kept on overnight fasting and on the day of OGTT, day 7 of the treatment each animal was dosed with a single dose of vehicle/test compounds administered orally and 60-min post dosing blood was collected (0 min) and glucose load (2 gm/kg/10 ml) administered per orally. Blood was then collected at time points corresponding to 30, 60 and 120 min after glucose load administration. Serum was separated and analyzed for glucose using Spectra max and commercial diagnostic kits.
(§3) The calculation for antidiabetic activity i.e. effect on serum glucose and improvement in glucose Area Under Curve (AUC) was calculated using the excel sheet and Graph Pad Prism software. The day-0 and day-6 glucose values of vehicle control and treatment were considered for calculating the effect on serum glucose. The effect on glucose AUC was calculated using the OGTT glucose levels at different time points and the improvement in glucose AUC were the reduction in glucose AUC after the treatment during OGTT.

db/db mice [3] = assay: Oral glucose tolerance test in db/db mice (studies I and II); conditions: Compound (Ia) 0.1 mg/kg; for AUC Glucose: OGTT day 14, fasting, glucose load 2 gm/kg; for % improvement in AUC glucose vs control: OGTT after 14 days of treatment
Description: 8. […] 8. The treatment was given oral gavages once daily for 14 days.
(§4) The OGTT procedure followed is as given below—

db/db mice [4] = assay: Oral glucose tolerance test in db/db mice (study IV); conditions: Compound Ia 0.1 mg/kg, Vildagliptin 1 mg/kg, Metformin 100 mg/kg; for % improvement in AUC glucose vs control: Table 19 and text, OGTT after 14 days of treatment
Description: 1. […] 17. The treatment was given oral gavages once daily for 14 days.
as §4

db/db mice [5] = assay: Antidiabetic activity with Exenatide or Glimepiride in db/db mice (studies VII and VIII): non-fasting serum glucose; conditions: for Serum Glucose (mg/dl) Day 0: Day 0 (pretreatment), male and female db/db mice; for Serum Glucose (mg/dl) Day 6: Day 6, one hour after dose, non-fasting; for % Change Day 6 vs Day 0: serum glucose
Description: The in-vivo efficacy for antidiabetic activity was done in male and female db/db mice of 12-16 weeks of age. Generally obese and diabetic animals are insulin resistant and have abnormalities in glucose and lipid metabolism. The development of diabetes and beta cell dysfunction in these animal models closely parallels the pathophysiology of the disease condition in humans. […] They progressively develop into insulinopenia with age, a feature commonly observed in last stage of type-2 diabetes, when blood sugar levels are insufficiently controlled. Therefore, this genetic model proves to be suitable for predicting the likely therapeutic benefit of novel euglycemic agents in human type-2 diabetes.
as §1, §2, §3

db/db mice [6] = assay: Antidiabetic activity in db/db mice (studies I and II): non-fasting serum glucose; conditions: Compound (Ia) 0.1 mg/kg; for Serum Glucose (mg/dl) Day 0: Day 0 (pretreatment); for Serum Glucose (mg/dl) Day 12: Day 12, non-fasting; for % Change Vs control: serum glucose day 12 vs vehicle control; for % Change Day 12 vs Day 0: serum glucose
Description: The in-vivo efficacy for antidiabetic activity was done for (I) and (II) individually with db/db mice of 13-14 weeks of age.
8. […] 8. The treatment was given oral gavages once daily for 14 days. […]

[7] = HF-HC fructose diet hamsters, 13 days, Compound (Ia) 3 mg/kg, Atorvastatin 0.5 mg/kg
[8] = Table 23, LDL/HDL ratio, Day 13, Compound Ia 3 mg/kg, Atorvastatin 0.5 mg/kg
[9] = Table 12, Metformin 150 mg/kg p.o.
[10] = Table 28, Compound Ia 0.1 mg/kg p.o., Exenatide 0.1 μg/kg i.p. once daily
[11] = Table 30, Compound Ia 0.1 mg/kg, Glimepiride 2 mg/kg p.o. once daily
[12] = Table 9, female db/db mice, Sitagliptin 3 mg/kg p.o. once daily
[13] = Table 9, Sitagliptin 3 mg/kg p.o. once daily
[14] = Table 11, female db/db mice, Metformin 150 mg/kg p.o. once daily
[15] = Table 11, Metformin 150 mg/kg p.o. once daily

CCO[C@@H](Cc1ccc(OCCn2c(C)ccc2-c2ccc(SC)cc2)cc1)C(=O)O [Compound (Ia), Benzenepropanoic acid, α-ethoxy-4-[2-[2-methyl-5-[4-(methylthio)phenyl]-1H -pyrrol-1-yl]ethoxy]-, magnesium salt]
reduction in LDL-C [1, 7]: 14.8% | reduction in LDL-C/HDL-C ratio, atherogenic index [1, 7]: does not showed any reduction | reduction in triglyceride [1, 7]: 65.2% | Serum LDL-C (mg/dl) Day 0 ([1]; Table 21, Day 0 (pretreatment), HF-HC fructose diet hamsters, Compound Ia 3 mg/kg, Atorvastatin 0.5 mg/kg oral once daily 13 days): 75.1 mg/dL | LDL-C % Change vs Day 0 ([1]; Table 21, Day 13, Compound Ia 3 mg/kg, Atorvastatin 0.5 mg/kg): 0.1% | Serum LDL-C (mg/dl) Day 13 ([1]; Table 21, Day 13, HF-HC fructose diet hamsters, Compound Ia 3 mg/kg, Atorvastatin 0.5 mg/kg oral once daily 13 days): 73.1 mg/dL | % Change vs HF-HC Fructose Control ([1]; Table 21, LDL-C, Day 13, Compound Ia 3 mg/kg, Atorvastatin 0.5 mg/kg): −14.8% | Serum triglyceride (mg/dl) Day 0 ([1]; Table 22, Day 0 (pretreatment), HF-HC fructose diet hamsters, Compound Ia 3 mg/kg, Atorvastatin 0.5 mg/kg oral once daily 13 days): 418.4 mg/dL | TG % Change vs Day 0 ([1]; Table 22, Day 13, Compound Ia 3 mg/kg, Atorvastatin 0.5 mg/kg): −64.0% | Serum triglyceride (mg/dl) Day 13 ([1]; Table 22, Day 13, HF-HC fructose diet hamsters, Compound Ia 3 mg/kg, Atorvastatin 0.5 mg/kg oral once daily 13 days): 149.5 mg/dL | % Change vs HF-HC Fructose Control ([1]; Table 22, triglyceride, Day 13, Compound Ia 3 mg/kg, Atorvastatin 0.5 mg/kg): −65.2% | LDL/HDL RATIO Day 0 ([1]; Table 23, Day 0 (pretreatment), HF-HC fructose diet hamsters, Compound Ia 3 mg/kg, Atorvastatin 0.5 mg/kg): 0.79 | LDL/HDL RATIO Day 13 ([1]; Table 23, Day 13, HF-HC fructose diet hamsters, Compound Ia 3 mg/kg, Atorvastatin 0.5 mg/kg): 0.82 | % Change vs HF-HC Fructose Control [1, 8]: 8.5% | Change vs Day 0 [1, 8]: 6.4 | AUC Glucose (db/db mice [2]; Table 29, Compound Ia 0.1 mg/kg p.o., Exenatide 0.1 μg/kg i.p.): 46452.6 mg·min/dL | % improvement in AUC glucose vs control (db/db mice [2]; Table 29 and text, OGTT day 7, Compound Ia 0.1 mg/kg p.o., Exenatide 0.1 μg/kg i.p.): 23.7% | AUC Glucose (db/db mice [2]; Table 31, Compound Ia 0.1 mg/kg, Glimepiride 2 mg/kg p.o.): 46452.6 mg·min/dL | % improvement in AUC glucose vs control (db/db mice [2]; Table 31 and text, OGTT after 7 days of treatment, Compound Ia 0.1 mg/kg, Glimepiride 2 mg/kg p.o.): 23.7% | AUC Glucose (db/db mice [3]; Table 10, Sitagliptin 3 mg/kg p.o.): 51757.3 ± 3366.3 mg·min/dL | % improvement in AUC glucose vs control (db/db mice [3]; Table 10 and text, Sitagliptin 3 mg/kg p.o.): 9% and 9.0 ± 5.9% | % improvement in AUC glucose vs control (db/db mice [3]; [9]): 9% | AUC Glucose (db/db mice [3]; [9]): 51757.3 mg·min/dL | AUC Glucose (db/db mice [4]; Table 19, OGTT day 14, fasting, glucose load 2 gm/kg): 69613.3 mg·min/dL | % improvement in AUC glucose vs control (db/db mice [4]): does no show any improvement | % improvement in AUC glucose vs control (db/db mice [4]; listed as Compound Ia): −12.0% | Serum Glucose (mg/dl) Day 0 (db/db mice [5]; [10]): 420.6 mg/dL | Serum Glucose (mg/dl) Day 6 (db/db mice [5]; [10]): 363.4 mg/dL | % Change Vs control (db/db mice [5]; Table 28, serum glucose day 6 vs vehicle control (i.p. PBS or per oral vehicle), Compound Ia 0.1 mg/kg p.o., Exenatide 0.1 μg/kg i.p.): −24.8% | % Change Day 6 vs Day 0 (db/db mice [5]; Table 28, Compound Ia 0.1 mg/kg p.o., Exenatide 0.1 μg/kg i.p.): −13.4% | Serum Glucose (mg/dl) Day 0 (db/db mice [5]; [11]): 420.6 mg/dL | Serum Glucose (mg/dl) Day 6 (db/db mice [5]; [11]): 363.4 mg/dL | % Change Day 6 vs Day 0 (db/db mice [5]; Table 30, Compound Ia 0.1 mg/kg, Glimepiride 2 mg/kg p.o.): −13.4% | % Change Vs control (db/db mice [5]; Table 30 and text, serum glucose day 6 vs vehicle control, Compound Ia 0.1 mg/kg, Glimepiride 2 mg/kg p.o.): −24.8% | reduction in serum glucose (db/db mice [5]; db/db mice, day 6, Compound Ia 0.1 mg/kg p.o., Exenatide 0.1 μg/kg i.p.): 24.8% | Serum Glucose (mg/dl) Day 0 (db/db mice [6]; [12]): 407.8 ± 28.9 mg/dL | Serum Glucose (mg/dl) Day 12 (db/db mice [6]; [12]): 276.9 ± 39.4 mg/dL | % Change Vs control (db/db mice [6]; [13]): −32.8 ± 6.0% | % Change Day 12 vs Day 0 (db/db mice [6]; [13]): −33.0 ± 5.9% | Serum Glucose (mg/dl) Day 0 (db/db mice [6]; [14]): 407.8 mg/dL | Serum Glucose (mg/dl) Day 12 (db/db mice [6]; [14]): 276.9 mg/dL | % Change Vs control (db/db mice [6]; [15]): −32.8% | % Change Day 12 vs Day 0 (db/db mice [6]; [15]): −33.0% | reduction in serum glucose (db/db mice [6]; female db/db mice, Sitagliptin 3 mg/kg, Metformin 150 mg/kg): 32.8%
